The values below come from US7923440B2, “Method of treating or preventing immune mediated disorders and pharmaceutical formulation for use therein” (Pantarhei Bioscience B.V., priority 2002, dated 2011).

For data set [1], the system named is AP-1 site in the presence of ERβ. Particulars: in the presence of / through ERβ, Paech et al. 1997; cited from earlier work.
For data set [2], the system named is AP-1 site in the presence of ERα. Particulars: Paech et al. 1997; cited from earlier work.
For data set [3], the system named is castrated mice with experimental autoimmune encephalomyelitis (EAE). The settings on record: amount inducing serum levels of late stage pregnancy, Jansson et al. 1998; cited from earlier work.
For data set [4] the following is noted: elimination from the blood; cited from earlier work.
Data set [5] addresses T1, human sex Hormone Binding Globulin (SHBG) (Homo sapiens, UniProt P04278).
T1 construct: made in house; host or cells: transgenic mouse (serum)
T1 sequence (P04278 30-402): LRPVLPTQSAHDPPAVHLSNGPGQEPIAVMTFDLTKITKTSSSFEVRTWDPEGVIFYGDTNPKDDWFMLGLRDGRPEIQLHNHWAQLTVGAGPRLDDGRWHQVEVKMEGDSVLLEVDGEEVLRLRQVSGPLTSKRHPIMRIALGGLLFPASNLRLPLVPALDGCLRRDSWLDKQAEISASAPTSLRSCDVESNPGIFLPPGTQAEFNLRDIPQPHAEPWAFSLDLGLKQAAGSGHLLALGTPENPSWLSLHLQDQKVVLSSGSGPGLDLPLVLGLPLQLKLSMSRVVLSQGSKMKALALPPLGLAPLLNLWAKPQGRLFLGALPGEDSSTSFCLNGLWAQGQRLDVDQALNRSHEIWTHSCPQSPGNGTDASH
The data set is described as follows: Competitive steroid-binding assay for SHBG. Particulars: comparison among tested steroids; order ethinylestradiol, 17β-estradiol, testosterone, 5α-dihydrotestosterone. The method, then:
Human SHBG was treated for 30 min at room temperature with a dextran-coated charcoal (DCC) suspension in phosphate buffered saline (PBS) to remove any steroid ligand. After centrifugation (2,000×g for 10 min) to sediment the DCC, the supernatant containing the human SHBG was diluted in PBS to a concentration of 1 nM based on its steroid binding capacity.
The average amounts of [^3H]labeled ligands bound to SHBG at each concentration of competitor (B) were expressed as a percentage of the average amounts of [^3H]labeled ligands bound to SHBG in the absence of competitor (B0), and were plotted against the concentration of competitor in each assay tube.

Data set [6] concerns male DBA/1 mice with collagen induced arthritis (CIA). The data set is described as follows: Collagen induced arthritis (CIA) in male DBA/1 mice, oral treatment. Particulars: 1 mg/kg. Format: in vivo, mouse. The method, then:
The ability of estetrol to alleviate the severity of immune mediated disorders and its possible side-effects were evaluated and compared with dexamethasone in mice developing collagen induced arthritis (CIA), which is another experimental system of autoimmune and chronic inflammatory disease, representing human arthritic diseases, particularly rheumatoid arthritis (RA).
Arthritis was induced in male DBA/1 mice using a two-step immunization protocol (Joosten et al., “Dual role of IL-12 in early and late stages of murine collagen type II arthritis”. J Immunol 1997; 159:4094-4102; Joosten et al., “IL-1β blockade prevents cartilage and bone destruction in murine type II collagen-induced arthritis, whereas TNFα blockade only ameliorates joint inflammation”. J Immunol 1999; 163:5049-55). This strain is highly susceptible to CIA induced with bovine type II collagen. On day 0, mice were immunized with bovine type II collagen (100 μg) emulsified in Freund's complete adjuvant (four subcutaneous injections in the back). On day 21, mice were boosted with an i.p. injection of 100 μg collagen type II diluted in PBS.
The effect of oral treatment with estetrol on collagen-induced arthritis was studied in a 6-week study design. From day 22 until the end of the study (day 42), the animals were treated once daily with vehicle (hydroxypropyl-beta-cyclodextrin in a 20% wt/vol solution in water) serving as negative control or four different dosages of estetrol (3 mg/kg, 1 mg/kg, 0.3 mg/kg and 0.1 mg/kg). Dexamethasone (1 mg/kg), was chosen as a positive control because it is a well studied corticosteroid that reduces swelling and inflammation and is used in a variety of disorders such as skin diseases (psoriasis, hives), allergic conditions, breathing problems, cancer, blood disorders (anemia), digestive problems, eye disorders and for the treatment of arthritis. Although effective as an anti-inflammatory agent, dexamethasone is also known to induce a number of side effects, which amongst others include in humans the induction of osteoporosis, reduced adrenal function, dizziness, nausea, indigestion, increased appetite, weight gain due to enhanced water retention, weakness and/or sleep disturbances. In addition, systemic dexamethasone treatment in rodents results in strong catabolic effects that can be easily observed as weight loss (Orzechowski et al. 2002, “Rats with a glucocorticoid-induced catabolic state show symptoms of oxidative stress and spleen atrophy: the effects of age and recovery”. J Vet Med A Physiol Pathol Clin Med; 49:256-63).
All groups used in the study consisted of 13 mice. During the study animals were weighed and monitored for clinical signs of arthritis. Scoring of disease severity (clinical arthritis score) was performed according to scoring system described by Joosten et al. 1997 (J. Immunol., 159:4094-4102) and Joosten et al. 1999 (J. Immunol., 163:5049-55).
Basic statistical analyses were performed as follows: The significance of differences between all treatment groups in the main clinical outcome parameters was tested using analysis of variance (ANOVA). Each significant ANOVA was followed by post hoc Tukey tests to determine the significance of the difference between each treatment group and the control group. Furthermore, linear regression analysis was used to study the dose-dependency of the effects of treatment with estetrol. All statistical analysis were performed using statistical software program SPSS 10.0 for Windows (SPSS Inc., Chicago, Ill., USA).

In the case of `O=C(c1ccc(OCCN2CCCCC2)cc1)c1c(-c2ccc(O)cc2)sc2cc(O)ccc12` [raloxifene], the “effect on AP-1 site” value is “stimulate” in data set [1] and “inhibit” in data set [2].

As for `C[C@]12CC[C@@H]3c4ccc(O)cc4CC[C@H]3[C@@H]1CC[C@@H]2O` [E2, 17β-estradiol], the “onset of experimental autoimmune encephalomyelitis (EAE)” value in data set [3] is on record as “delays the onset”. The half-life result in data set [4] was “around 1 hour”. Besides, the “effect on AP-1 site” value in data set [1] was “inhibits”; in data set [2], “activates”.

Regarding `C[C@]12CC[C@H]3[C@@H](CCC4=CC(=O)CC[C@@]43C)[C@@H]1CC[C@@H]2O` [testosterone, reference compound], the “relative binding affinity for human SHBG” value in data set [5] is “in this order, show an increased relative binding affinity for human SHBG”.

`C[C@@H]1C[C@H]2[C@@H]3CCC4=CC(=O)C=C[C@]4(C)[C@@]3(F)[C@@H](O)C[C@]2(C)[C@@]1(O)C(=O)CO` [dexamethasone, reference compound]: the “average cumulative arthritis score” value in data set [6] (day 21 to 42, vehicle 31.4±1.73) is on record as 0. For the same compound, the results for the “body weight, % of initial weight (day 21)” value in data set [6] (day 28), in data set [6] (day 35) and in data set [6] (day 42) were 91.5%, 91.4% and 94.0%, respectively. Besides, the macroscopic arthritis score in data set [6] (until day 42, vehicle 5.90±0.38 on day 42) is reported as 0. Also, the “disease incidence (arthritis)” value in data set [6] (up to day 42) is listed as 0%.

As for `CC/C(=C(\c1ccccc1)c1ccc(OCCN(C)C)cc1)c1ccccc1` [tamoxifen], the “effect on AP-1 site” value in data set [1] is “stimulate”; in data set [2], “inhibit”.

Turning to `C[C@]12CC[C@@H]3c4ccc(O)cc4CC[C@H]3[C@@H]1C[C@@H](O)[C@@H]2O` [estriol], the “onset of experimental autoimmune encephalomyelitis (EAE)” value in data set [3] is on record as “delays the onset”.

On to `C[C@]12CCC(=O)C[C@@H]1CC[C@@H]1[C@@H]2CC[C@]2(C)[C@@H](O)CC[C@@H]12` [5α-dihydrotestosterone, reference compound], for which the “relative binding affinity for human SHBG” value in data set [5] is recorded as “in this order, show an increased relative binding affinity for human SHBG”.

As for `C[C@]12CC[C@@H]3c4ccc(O)cc4C[C@@H](CCCCCCCCC[S+]([O-])CCCC(F)(F)C(F)(F)F)[C@H]3[C@@H]1CC[C@@H]2O` (stereo partly shown) [ICI-182,780], the “effect on AP-1 site” value in data set [1] is on record as “stimulate”; in data set [2] it was “inhibit”.
